Test results taken from ChEMBL document CHEMBL5303573, “Mapping human microbiome drug metabolism by gut bacteria and their genes” (Nature, 2019).

Experiment: The drug is tested on Clostridium sp. strain: fecal isolate for biotransformation. The drug concentrations were measured before and after a 12-h incubation by liquid-chromatography-coupled mass spectrometry (LC–MS)
Conditions: 2 µM

SMILES | Bacterial Biotransformation
C=CCc1ccccc1OCC(O)CNC(C)C (centres undefined) [ALPRENOLOL] | Compound NOT metabolized
CNC(=C[N+](=O)[O-])NCCSCc1ccc(CN(C)C)o1 [RANITIDINE] | Compound metabolized
COc1c(C)c2c(c(O)c1C/C=C(\C)CCC(=O)OCCN1CCOCC1)C(=O)OC2 [MYCOPHENOLATE MOFETIL] | Compound metabolized
CCN(CC)CCOCCOC(=O)C1(c2ccccc2)CCCC1.O=C(O)CC(O)(CC(=O)O)C(=O)O [CARBETAPENTANE CITRATE] | Compound metabolized
CC[C@H](C)C(=O)O[C@H]1CCC=C2C=C[C@H](C)[C@H](CC[C@@H]3C[C@@H](O)CC(=O)O3)[C@H]21 [MEVASTATIN] | Compound metabolized
CC[C@@H](CO)NC(=O)[C@@H]1C=C2c3cccc4c3c(cn4C)C[C@H]2N(C)C1.O=C(O)/C=C\C(=O)O [METHYSERGIDE MALEATE] | Compound metabolized
CN1CCc2cccc3c2[C@H]1Cc1ccc(O)c(O)c1-3 [APOMORPHINE] | Compound NOT metabolized
N[C@@H](Cc1ccc(N(CCCl)CCCl)cc1)C(=O)O | Compound metabolized
CC(C)C[C@H]1C(=O)N2CCC[C@H]2[C@]2(O)O[C@](NC(=O)[C@@H]3C=C4c5cccc6[nH]c(Br)c(c56)C[C@H]4N(C)C3)(C(C)C)C(=O)N12.CS(=O)(=O)O [BROMOCRIPTINE MESYLATE] | Compound metabolized

Conditions: bacteroides fragilis, 12 h, 2 µM
Description: The drug is tested on Bacteroides fragilis strain: DS-208 for biotransformation. The drug concentrations were measured before and after a 12-h incubation by liquid-chromatography-coupled mass spectrometry (LC–MS)

SMILES | Bacterial Biotransformation
O=C(O)COCCN1CCN(C(c2ccccc2)c2ccc(Cl)cc2)CC1 (centres undefined) [CETIRIZINE] | Compound metabolized
C=CCc1ccccc1OCC(O)CNC(C)C (centres undefined) [ALPRENOLOL] | Compound NOT metabolized
CNC(=C[N+](=O)[O-])NCCSCc1ccc(CN(C)C)o1 [RANITIDINE] | Compound metabolized
COc1c(C)c2c(c(O)c1C/C=C(\C)CCC(=O)OCCN1CCOCC1)C(=O)OC2 [MYCOPHENOLATE MOFETIL] | Compound metabolized
CCN(CC)CCOCCOC(=O)C1(c2ccccc2)CCCC1.O=C(O)CC(O)(CC(=O)O)C(=O)O [CARBETAPENTANE CITRATE] | Compound metabolized
CC[C@H](C)C(=O)O[C@H]1CCC=C2C=C[C@H](C)[C@H](CC[C@@H]3C[C@@H](O)CC(=O)O3)[C@H]21 [MEVASTATIN] | Compound metabolized
CC[C@@H](CO)NC(=O)[C@@H]1C=C2c3cccc4c3c(cn4C)C[C@H]2N(C)C1.O=C(O)/C=C\C(=O)O [METHYSERGIDE MALEATE] | Compound metabolized
CN1CCc2cccc3c2[C@H]1Cc1ccc(O)c(O)c1-3 [APOMORPHINE] | Compound NOT metabolized
N[C@@H](Cc1ccc(N(CCCl)CCCl)cc1)C(=O)O | Compound metabolized
CC(C)C[C@H]1C(=O)N2CCC[C@H]2[C@]2(O)O[C@](NC(=O)[C@@H]3C=C4c5cccc6[nH]c(Br)c(c56)C[C@H]4N(C)C3)(C(C)C)C(=O)N12.CS(=O)(=O)O [BROMOCRIPTINE MESYLATE] | Compound metabolized

Conditions: enterocloster bolteae, 12 h, 2 µM
Description: The drug is tested on Clostridium bolteae strain: ATCCBAA-613 for biotransformation. The drug concentrations were measured before and after a 12-h incubation by liquid-chromatography-coupled mass spectrometry (LC–MS)

SMILES | Bacterial Biotransformation
O=C(O)COCCN1CCN(C(c2ccccc2)c2ccc(Cl)cc2)CC1 (centres undefined) [CETIRIZINE] | Compound NOT metabolized
C=CCc1ccccc1OCC(O)CNC(C)C (centres undefined) [ALPRENOLOL] | Compound NOT metabolized
CNC(=C[N+](=O)[O-])NCCSCc1ccc(CN(C)C)o1 [RANITIDINE] | Compound NOT metabolized
COc1c(C)c2c(c(O)c1C/C=C(\C)CCC(=O)OCCN1CCOCC1)C(=O)OC2 [MYCOPHENOLATE MOFETIL] | Compound metabolized
CCN(CC)CCOCCOC(=O)C1(c2ccccc2)CCCC1.O=C(O)CC(O)(CC(=O)O)C(=O)O [CARBETAPENTANE CITRATE] | Compound metabolized
CC[C@H](C)C(=O)O[C@H]1CCC=C2C=C[C@H](C)[C@H](CC[C@@H]3C[C@@H](O)CC(=O)O3)[C@H]21 [MEVASTATIN] | Compound metabolized
CC[C@@H](CO)NC(=O)[C@@H]1C=C2c3cccc4c3c(cn4C)C[C@H]2N(C)C1.O=C(O)/C=C\C(=O)O [METHYSERGIDE MALEATE] | Compound metabolized
CN1CCc2cccc3c2[C@H]1Cc1ccc(O)c(O)c1-3 [APOMORPHINE] | Compound NOT metabolized
N[C@@H](Cc1ccc(N(CCCl)CCCl)cc1)C(=O)O | Compound metabolized
CC(C)C[C@H]1C(=O)N2CCC[C@H]2[C@]2(O)O[C@](NC(=O)[C@@H]3C=C4c5cccc6[nH]c(Br)c(c56)C[C@H]4N(C)C3)(C(C)C)C(=O)N12.CS(=O)(=O)O [BROMOCRIPTINE MESYLATE] | Compound metabolized

Experiment: The drug is tested on Clostridium symbiosum strain: ATCC14940 for biotransformation. The drug concentrations were measured before and after a 12-h incubation by liquid-chromatography-coupled mass spectrometry (LC–MS)
Conditions: 2 µM

SMILES | Bacterial Biotransformation
O=C(O)COCCN1CCN(C(c2ccccc2)c2ccc(Cl)cc2)CC1 (centres undefined) [CETIRIZINE] | Compound NOT metabolized
C=CCc1ccccc1OCC(O)CNC(C)C (centres undefined) [ALPRENOLOL] | Compound NOT metabolized
CNC(=C[N+](=O)[O-])NCCSCc1ccc(CN(C)C)o1 [RANITIDINE] | Compound metabolized
COc1c(C)c2c(c(O)c1C/C=C(\C)CCC(=O)OCCN1CCOCC1)C(=O)OC2 [MYCOPHENOLATE MOFETIL] | Compound metabolized
CCN(CC)CCOCCOC(=O)C1(c2ccccc2)CCCC1.O=C(O)CC(O)(CC(=O)O)C(=O)O [CARBETAPENTANE CITRATE] | Compound metabolized
CC[C@H](C)C(=O)O[C@H]1CCC=C2C=C[C@H](C)[C@H](CC[C@@H]3C[C@@H](O)CC(=O)O3)[C@H]21 [MEVASTATIN] | Compound metabolized
CC[C@@H](CO)NC(=O)[C@@H]1C=C2c3cccc4c3c(cn4C)C[C@H]2N(C)C1.O=C(O)/C=C\C(=O)O [METHYSERGIDE MALEATE] | Compound metabolized
CN1CCc2cccc3c2[C@H]1Cc1ccc(O)c(O)c1-3 [APOMORPHINE] | Compound NOT metabolized
N[C@@H](Cc1ccc(N(CCCl)CCCl)cc1)C(=O)O | Compound metabolized
CC(C)C[C@H]1C(=O)N2CCC[C@H]2[C@]2(O)O[C@](NC(=O)[C@@H]3C=C4c5cccc6[nH]c(Br)c(c56)C[C@H]4N(C)C3)(C(C)C)C(=O)N12.CS(=O)(=O)O [BROMOCRIPTINE MESYLATE] | Compound metabolized

Experiment: The drug is tested on Eggerthella lenta strain: ATCC25559 for biotransformation. The drug concentrations were measured before and after a 12-h incubation by liquid-chromatography-coupled mass spectrometry (LC–MS)
Conditions: 2 µM

SMILES | Bacterial Biotransformation
C=CCc1ccccc1OCC(O)CNC(C)C (centres undefined) [ALPRENOLOL] | Compound NOT metabolized
CNC(=C[N+](=O)[O-])NCCSCc1ccc(CN(C)C)o1 [RANITIDINE] | Compound metabolized
COc1c(C)c2c(c(O)c1C/C=C(\C)CCC(=O)OCCN1CCOCC1)C(=O)OC2 [MYCOPHENOLATE MOFETIL] | Compound metabolized
CCN(CC)CCOCCOC(=O)C1(c2ccccc2)CCCC1.O=C(O)CC(O)(CC(=O)O)C(=O)O [CARBETAPENTANE CITRATE] | Compound metabolized
CC[C@H](C)C(=O)O[C@H]1CCC=C2C=C[C@H](C)[C@H](CC[C@@H]3C[C@@H](O)CC(=O)O3)[C@H]21 [MEVASTATIN] | Compound metabolized
CC[C@@H](CO)NC(=O)[C@@H]1C=C2c3cccc4c3c(cn4C)C[C@H]2N(C)C1.O=C(O)/C=C\C(=O)O [METHYSERGIDE MALEATE] | Compound metabolized
CN1CCc2cccc3c2[C@H]1Cc1ccc(O)c(O)c1-3 [APOMORPHINE] | Compound NOT metabolized
N[C@@H](Cc1ccc(N(CCCl)CCCl)cc1)C(=O)O | Compound metabolized
CC(C)C[C@H]1C(=O)N2CCC[C@H]2[C@]2(O)O[C@](NC(=O)[C@@H]3C=C4c5cccc6[nH]c(Br)c(c56)C[C@H]4N(C)C3)(C(C)C)C(=O)N12.CS(=O)(=O)O [BROMOCRIPTINE MESYLATE] | Compound metabolized

Conditions: bacteroides stercoris, 12 h, 2 µM
Description: The drug is tested on Bacteroides stercoris strain: ATCC43183 for biotransformation. The drug concentrations were measured before and after a 12-h incubation by liquid-chromatography-coupled mass spectrometry (LC–MS)

SMILES | Bacterial Biotransformation
O=C(O)COCCN1CCN(C(c2ccccc2)c2ccc(Cl)cc2)CC1 (centres undefined) [CETIRIZINE] | Compound metabolized
C=CCc1ccccc1OCC(O)CNC(C)C (centres undefined) [ALPRENOLOL] | Compound NOT metabolized
CNC(=C[N+](=O)[O-])NCCSCc1ccc(CN(C)C)o1 [RANITIDINE] | Compound NOT metabolized
COc1c(C)c2c(c(O)c1C/C=C(\C)CCC(=O)OCCN1CCOCC1)C(=O)OC2 [MYCOPHENOLATE MOFETIL] | Compound metabolized
CCN(CC)CCOCCOC(=O)C1(c2ccccc2)CCCC1.O=C(O)CC(O)(CC(=O)O)C(=O)O [CARBETAPENTANE CITRATE] | Compound metabolized
CC[C@H](C)C(=O)O[C@H]1CCC=C2C=C[C@H](C)[C@H](CC[C@@H]3C[C@@H](O)CC(=O)O3)[C@H]21 [MEVASTATIN] | Compound metabolized
CC[C@@H](CO)NC(=O)[C@@H]1C=C2c3cccc4c3c(cn4C)C[C@H]2N(C)C1.O=C(O)/C=C\C(=O)O [METHYSERGIDE MALEATE] | Compound metabolized
CN1CCc2cccc3c2[C@H]1Cc1ccc(O)c(O)c1-3 [APOMORPHINE] | Compound NOT metabolized
N[C@@H](Cc1ccc(N(CCCl)CCCl)cc1)C(=O)O | Compound metabolized
CC(C)C[C@H]1C(=O)N2CCC[C@H]2[C@]2(O)O[C@](NC(=O)[C@@H]3C=C4c5cccc6[nH]c(Br)c(c56)C[C@H]4N(C)C3)(C(C)C)C(=O)N12.CS(=O)(=O)O [BROMOCRIPTINE MESYLATE] | Compound metabolized

Experiment: The drug is tested on Clostridium hathewayi strain: DSM13479 for biotransformation. The drug concentrations were measured before and after a 12-h incubation by liquid-chromatography-coupled mass spectrometry (LC–MS)
Conditions: hungatella hathewayi, 2 µM

SMILES | Bacterial Biotransformation
O=C(O)COCCN1CCN(C(c2ccccc2)c2ccc(Cl)cc2)CC1 (centres undefined) [CETIRIZINE] | Compound NOT metabolized

Experiment: The drug is tested on Bifidobacterium ruminantium strain: fecal isolate for biotransformation. The drug concentrations were measured before and after a 12-h incubation by liquid-chromatography-coupled mass spectrometry (LC–MS)
Conditions: 2 µM

SMILES | Bacterial Biotransformation
O=C(O)COCCN1CCN(C(c2ccccc2)c2ccc(Cl)cc2)CC1 (centres undefined) [CETIRIZINE] | Compound NOT metabolized
C=CCc1ccccc1OCC(O)CNC(C)C (centres undefined) [ALPRENOLOL] | Compound metabolized
CNC(=C[N+](=O)[O-])NCCSCc1ccc(CN(C)C)o1 [RANITIDINE] | Compound metabolized
COc1c(C)c2c(c(O)c1C/C=C(\C)CCC(=O)OCCN1CCOCC1)C(=O)OC2 [MYCOPHENOLATE MOFETIL] | Compound metabolized
CCN(CC)CCOCCOC(=O)C1(c2ccccc2)CCCC1.O=C(O)CC(O)(CC(=O)O)C(=O)O [CARBETAPENTANE CITRATE] | Compound metabolized
CC[C@H](C)C(=O)O[C@H]1CCC=C2C=C[C@H](C)[C@H](CC[C@@H]3C[C@@H](O)CC(=O)O3)[C@H]21 [MEVASTATIN] | Compound metabolized
CC[C@@H](CO)NC(=O)[C@@H]1C=C2c3cccc4c3c(cn4C)C[C@H]2N(C)C1.O=C(O)/C=C\C(=O)O [METHYSERGIDE MALEATE] | Compound metabolized
CN1CCc2cccc3c2[C@H]1Cc1ccc(O)c(O)c1-3 [APOMORPHINE] | Compound NOT metabolized
N[C@@H](Cc1ccc(N(CCCl)CCCl)cc1)C(=O)O | Compound metabolized
CC(C)C[C@H]1C(=O)N2CCC[C@H]2[C@]2(O)O[C@](NC(=O)[C@@H]3C=C4c5cccc6[nH]c(Br)c(c56)C[C@H]4N(C)C3)(C(C)C)C(=O)N12.CS(=O)(=O)O [BROMOCRIPTINE MESYLATE] | Compound metabolized
